In experiment [1] the test system is human platelet rich plasma (PRP). The experiment in a line: ADP induced platelet aggregation assay. The note with it: Homo sapiens, Platelet, 5 min, read-out: PA IC50 (μM) @ 10 μM ADP, human PRP, 10 μM ADP, AUC at 5 minute.
The target of experiment [2] is cloned human P2Y1 receptors (Homo sapiens (Human), UniProt P47900). The experiment in a line: Binding Assay B - Scintillation Proximity Assay (SPA) for P2Y1 binding, [33P] 2MeS-ADP. The note with it: read-out: P2Y1 Ki (nM) using binding assay B. Here is the method: Binding Assay B—Scintillation Proximity Assay (SPA) for P2Y1 Binding
Chain of cloned human P2Y1 receptors (P47900 whole entry): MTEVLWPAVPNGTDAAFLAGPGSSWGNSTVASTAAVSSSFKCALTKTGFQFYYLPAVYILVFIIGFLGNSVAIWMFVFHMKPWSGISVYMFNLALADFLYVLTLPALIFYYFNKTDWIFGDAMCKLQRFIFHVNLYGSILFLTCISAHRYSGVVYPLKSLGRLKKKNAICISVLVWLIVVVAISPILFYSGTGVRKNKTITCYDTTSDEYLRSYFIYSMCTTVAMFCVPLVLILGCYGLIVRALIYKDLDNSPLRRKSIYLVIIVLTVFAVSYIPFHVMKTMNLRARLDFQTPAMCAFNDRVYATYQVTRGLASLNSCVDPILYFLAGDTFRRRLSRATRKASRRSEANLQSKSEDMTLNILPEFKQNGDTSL
A SPA membrane binding assay was used to identify inhibitors of [^33P] […] Reactions were allowed to proceed to completion at room temperature for 1 hour followed by centrifugation of the plate for 5 min. About 40 μL of the aqueous solution was aspirated. Plates were sealed and the [^33P]
A general note: In a scintillation proximity assay essentially only radioactivity close to the scintillant gives light.

Setting [3] is: SPA, 0.3 nM [33P] 2MeS-ADP, Cheng-Prusoff.

Read-outs that look alike come from different tables or passages of the source. Some results are limits rather than exact numbers.

In the case of `CC(C)n1nc(-c2c(F)cc(O)c3c2C(C)(C)CN3c2ccccc2NC(=O)Nc2csc(C(F)(F)F)n2)cc1C(F)(F)F` [Example 272, 1-(2-(5-Fluoro-7-hydroxy-4-(1-isopropyl-5-(trifluoromethyl)-1H-pyrazol-3-yl)-3,3-dimethylindolin-1-yl)phenyl)-3-(2-(trifluoromethyl)thiazol-4-yl)urea], the half-maximal inhibitory concentration (IC50) (in general, the concentration needed to halve the response being measured) in experiment [1] came to 0.18 µM. Also, the Ki (as a rule, a dissociation constant, usually derived from enzyme kinetics or from competition with a known ligand) in experiment [2] (setting [3]) worked out at 16.7 nM.

Turning to `CC1(C)CN(c2ccccc2NC(=O)Nc2ccc(OC(F)(F)F)cc2)c2c(O)ccc(-c3nc4cc(Cl)ccc4s3)c21` [Example 85, 1-(2-(4-(5-Chlorobenzo[d]thiazol-2-yl)-7-hydroxy-3,3-dimethylindolin-1-yl)phenyl)-3-(4-(trifluoromethoxy)phenyl)urea], the half-maximal inhibitory concentration (IC50) in experiment [1] stood at 0.38 µM. Moreover, the Ki in experiment [2] (setting [3]) was found to be 23.5 nM.

Consider `CC1(C)CN(c2cc(F)ccc2NC(=O)Nc2nc3ccc(F)cc3s2)c2c(O)ccc(C(F)(F)F)c21` [Example 64, 1-(4-Fluoro-2-(7-hydroxy-3,3-dimethyl-4-(trifluoromethyl)indolin-1-yl)phenyl)-3-(6-fluorobenzo[d]thiazol-2-yl)urea], for which, in experiment [1], the concentration for half-maximal inhibition (IC50) turned out to be 0.21 µM. Also, the Ki in experiment [2] (setting [3]) worked out at 13 nM.

Consider `CC1(C)CN(c2ccccc2NC(=O)Nc2ccc(OC(F)(F)F)cc2)c2c(O)ccc(-c3ccncc3Cl)c21` [Example 114, 1-(2-(4-(3-Chloropyridin-4-yl)-7-hydroxy-3,3-dimethylindolin-1-yl)phenyl)-3-(4-(trifluoromethoxy)phenyl) urea], for which the concentration for half-maximal inhibition (IC50) in experiment [1] worked out at 0.53 µM. Besides, in experiment [2] (setting [3]), the inhibition constant (Ki) came out at 26.5 nM.

As for `CC1(C)CN(c2c(F)cccc2NC(=O)Nc2ccc(F)cc2F)c2c(O)ccc(C(F)(F)F)c21` [Example 62, 1-(2,4-Difluorophenyl)-3-(3-fluoro-2-(7-hydroxy-3,3-dimethyl-4-(trifluoromethyl)indolin-1-yl)phenyl)urea], the IC50 in experiment [1] was 0.75 µM. Also, the Ki in experiment [2] (setting [3]) came to 14.6 nM.

For the compound `CC1(C)CN(c2ccccc2NC(=O)Nc2ccc(OC(F)(F)F)cc2)c2c(O)cc(F)c(-c3cc(F)nc(F)c3)c21` [Example 161, 1-(2-(4-(2,6-Difluoropyridin-4-yl)-5-fluoro-7-hydroxy-3,3-dimethylindolin-1-yl)phenyl)-3-(4-(trifluoromethoxy)phenyl)urea], in experiment [1], the 50% inhibitory concentration (IC50) amounted to 0.16 µM. Besides, the Ki in experiment [2] (setting [3]) is 6.6 nM.

With `CC1(C)CN(c2ccccc2NC(=O)Nc2csc(C(F)(F)F)n2)c2c(O)cc(F)c(-c3ccc(F)cc3)c21` [Example 228, 1-(2-(5-Fluoro-4-(4-fluorophenyl)-7-hydroxy-3,3-dimethylindolin-1-yl)phenyl)-3-(2-(trifluoromethyl)thiazol-4-yl)urea], the half-inhibitory concentration (IC50) in experiment [1] turned out to be 0.3 µM. Further, the inhibition constant Ki in experiment [2] (setting [3]) stood at 13.6 nM.

Consider `CC(C)(C)c1ccc(-c2c(F)cc(O)c3c2C(C)(C)CN3c2ccccc2NC(=O)Nc2ccc(OC(F)(F)F)cc2)cn1` [Example 165, 1-(2-(4-(6-(tert-Butyl)pyridin-3-yl)-5-fluoro-7-hydroxy-3,3-dimethylindolin-1-yl)phenyl)-3-(4-(trifluoromethoxy)phenyl)urea], for which the half-inhibitory concentration (IC50) in experiment [1] stood at 0.21 µM. Moreover, the inhibitory constant (Ki) in experiment [2] (setting [3]) amounted to 26.8 nM.

Regarding `CC1(C)CN(c2ccccc2NC(=O)Nc2nc3ccc(F)nc3s2)c2c(O)cc(F)c(-c3ccc(F)cc3)c21` [Example 233, 1-(2-(5-Fluoro-4-(4-fluorophenyl)-7-hydroxy-3,3-dimethylindolin-1-yl)phenyl)-3-(5-fluorothiazolo[5,4-b]pyridin-2-yl)urea], the IC50 in experiment [1] was 0.31 µM. The Ki in experiment [2] (setting [3]) was found to be 9.4 nM.

Consider `CCSc1nsc(NC(=O)Nc2ccccc2N2CC(CC)(CC)c3c(F)ccc(O)c32)n1` [Example 33, 1-(2-(3,3-Diethyl-4-fluoro-7-hydroxyindolin-1-yl)phenyl)-3-(3-(ethylthio)-1,2,4-thiadiazol-5-yl)urea], for which the half-inhibitory concentration (IC50) in experiment [1] was 0.55 µM. In experiment [2] (setting [3]), the inhibitory constant (Ki) amounted to 7.6 nM.

`CC1(C)CN(c2ccc(F)cc2NC(=O)Nc2ccc(F)cc2F)c2c(O)ccc(C(F)(F)F)c21` [Example 60, 1-(2,4-Difluorophenyl)-3-(5-fluoro-2-(7-hydroxy-3,3-dimethyl-4-(trifluoromethyl)indolin-1-yl)phenyl)urea]: the 50% inhibitory concentration (IC50) in experiment [1] stood at 0.62 µM. Further, in experiment [2] (setting [3]), the inhibition constant Ki stood at 10.6 nM.

Take `CC1(C)CN(c2ccccc2NC(=O)Nc2nc3ccc(F)cc3s2)c2c(O)cc(F)c(-c3nc4ccc(Cl)cc4s3)c21` [Example 155, 1-(2-(4-(6-Chlorobenzo[d]thiazol-2-yl)-5-fluoro-7-hydroxy-3,3-dimethylindolin-1-yl)phenyl)-3-(6-fluorobenzo[d]thiazol-2-yl)urea]: the IC50 in experiment [1] was determined as 0.6 µM. For the same compound, the Ki in experiment [2] (setting [3]) stood at 38 nM.

Consider `CC1(C)CN(c2ccccc2NC(=O)Nc2ccc(OC(F)(F)F)cc2)c2c(O)ccc(-c3nc4ccccc4o3)c21` [Example 82, 1-(2-(4-(Benzo[d]oxazol-2-yl)-7-hydroxy-3,3-dimethylindolin-1-yl)phenyl)-3-(4-(trifluoromethoxy)phenyl)urea], for which the 50% inhibitory concentration (IC50) in experiment [1] is 0.99 µM. Further, the Ki in experiment [2] (setting [3]) was determined as 15.8 nM.

Turning to `CC1(C)CN(c2ccccc2NC(=O)Nc2ccc(OC(F)(F)F)cc2)c2c(O)ccc(-c3nc4cnccc4o3)c21` [Example 96, 1-(2-(7-Hydroxy-3,3-dimethyl-4-(oxazolo[4,5-c]pyridin-2-yl)indolin-1-yl)phenyl)-3-(4-(trifluoromethoxy)phenyl)urea], the IC50 in experiment [1] turned out to be 2.99 µM. Also, the Ki in experiment [2] (setting [3]) amounted to 22.2 nM.

On to `CC1(C)CN(c2ccccc2NC(=O)Nc2nc3c(s2)CN(CC2CC2)CC3)c2c(O)ccc(C(F)(F)F)c21` [Example 23, 1-(5-(Cyclopropylmethyl)-4,5,6,7-tetrahydrothiazolo[5,4-c]pyridin-2-yl)-3-(2-(7-hydroxy-3,3-dimethyl-4-(trifluoromethyl)indolin-1-yl)phenyl)urea], for which, in experiment [1], the IC50 stood at 1.01 µM. In experiment [2] (setting [3]), the Ki was 10.4 nM.

With `CC(C)(C)c1ccc(NC(=O)Nc2ccccc2N2CC(C)(C)c3ccccc32)cc1` [Comparator 1, reference compound], the IC50 in experiment [1] is greater than 20 µM. In experiment [2] (setting [3]), the inhibition constant (Ki) was 12.9 nM.

With `CC1(C)CN(c2ccccc2NC(=O)Nc2nc3ccc(F)cc3s2)c2c(O)cc(F)c(-c3ccc(Cl)cc3)c21` [Example 224, 1-(2-(4-(4-Chlorophenyl)-5-fluoro-7-hydroxy-3,3-dimethylindolin-1-yl)phenyl)-3-(6-fluorobenzo[d]thiazol-2-yl)urea], the concentration for half-maximal inhibition (IC50) in experiment [1] worked out at 0.34 µM. In addition, the inhibitory constant (Ki) in experiment [2] (setting [3]) was 26.1 nM.

As for `CC1(C)CN(c2ccccc2NC(=O)Nc2nc3ccc(F)cc3s2)c2c(O)cc(F)c(-c3cc(C(F)(F)F)no3)c21` [Example 264, 1-(2-(5-Fluoro-7-hydroxy-3,3-dimethyl-4-(3-(trifluoromethyl)isoxazol-5-yl)indolin-1-yl)phenyl)-3-(6-fluorobenzo[d]thiazol-2-yl)urea], the IC50 in experiment [1] was determined as 0.62 µM. The Ki in experiment [2] worked out at 18.2 nM.

On to `CC1(C)CN(c2ccccc2NC(=O)Nc2ccc(OC(F)(F)F)cc2)c2c(O)c(F)cc(-c3ccc(F)cc3)c21` [Example 232, 1-(2-(6-Fluoro-4-(4-fluorophenyl)-7-hydroxy-3,3-dimethylindolin-1-yl)phenyl)-3-(4-(trifluoromethoxy)phenyl)urea], for which the IC50 in experiment [1] is 0.39 µM. Besides, the Ki in experiment [2] (setting [3]) is 14.7 nM.

For the compound `CC1(C)CN(c2ccccc2NC(=O)Nc2ccc(OC(F)(F)F)cc2)c2c(O)ccc(-c3nc4cc(F)ccc4s3)c21` [Example 170, 1-(2-(4-(5-Fluorobenzo[d]thiazol-2-yl)-7-hydroxy-3,3-dimethylindolin-1-yl)phenyl)-3-(4-(trifluoromethoxy)phenyl)urea], in experiment [1], the half-inhibitory concentration (IC50) was determined as 0.25 µM. Further, in experiment [2] (setting [3]), the Ki was determined as 14.1 nM.

On to `CC1(C)CN(c2ccccc2NC(=O)Nc2ccc(OC(F)(F)F)cc2)c2c(O)c(F)cc(-c3ccc(Cl)cc3)c21` [Example 231, 1-(2-(4-(4-Chlorophenyl)-6-fluoro-7-hydroxy-3,3-dimethylindolin-1-yl)phenyl)-3-(4-(trifluoromethoxy)phenyl)urea], for which the IC50 in experiment [1] came to 0.3 µM. For the same compound, the Ki in experiment [2] (setting [3]) is 15.2 nM.

In the case of `CC1(C)CN(c2ccccc2NC(=O)Nc2nc3ccc(Cl)cc3s2)c2c(O)ccc(-c3nc4ccc(F)cc4s3)c21` [Example 128, 1-(6-Chlorobenzo[d]thiazol-2-yl)-3-(2-(4-(6-fluorobenzo[d]thiazol-2-yl)-7-hydroxy-3,3-dimethylindolin-1-yl)phenyl)urea], the IC50 in experiment [1] was determined as 0.24 µM. For the same compound, the inhibitory constant (Ki) in experiment [2] (setting [3]) stood at 108 nM.

Regarding `CC1(C)CN(c2ccccc2NC(=O)Nc2ccc(OC(F)(F)F)cc2)c2c(O)cc(F)c(-c3ccc(F)c(Cl)c3)c21` [Example 237, 1-(2-(4-(3-Chloro-4-fluorophenyl)-5-fluoro-7-hydroxy-3,3-dimethylindolin-1-yl)phenyl)-3-(4-(trifluoromethoxy)phenyl)urea], the half-maximal inhibitory concentration (IC50) in experiment [1] worked out at 0.48 µM. In experiment [2] (setting [3]), the Ki was found to be 21.5 nM.

Consider `CC1(C)CN(c2ccccc2NC(=O)Nc2ccc(OC(F)(F)F)cc2)c2c(O)ccc(C3=NCC(C(F)(F)F)O3)c21` (centres unmarked) [Example 105, 1-(2-(7-Hydroxy-3,3-dimethyl-4-(5-(trifluoromethyl)-4,5-dihydrooxazol-2-yl)indolin-1-yl)phenyl)-3-(4-(trifluoromethoxy)phenyl)urea], for which the IC50 in experiment [1] amounted to 1.57 µM. The Ki in experiment [2] (setting [3]) turned out to be 8.8 nM.

Consider `CC1(C)CN(c2ccccc2NC(=O)Nc2nc3ccc(Cl)nc3s2)c2c(O)cc(F)c(-c3cc(C(F)(F)F)no3)c21` [Example 263, 1-(5-Chlorothiazolo[5,4-b]pyridin-2-yl)-3-(2-(5-fluoro-7-hydroxy-3,3-dimethyl-4-(3-(trifluoromethyl)isoxazol-5-yl)indolin-1-yl)phenyl)urea], for which the IC50 in experiment [1] is 0.84 µM. Besides, in experiment [2] (setting [3]), the Ki is 20.5 nM.

These data come from patent US9540323B2 (BRISTOL-MYERS SQUIBB COMPANY, priority 2012, dated 2017).
